Experimental findings from patent US10377741B2, “Substituted heteroaryl aldehyde compounds and methods for their use in increasing tissue oxygenation” (Global Blood Therapeutics, Inc., priority 2011, dated 2019) are described below.

One experiment has as its target T1, HbS/A (Homo sapiens, UniProt P68871+P69905, E7V).
T1 construct: A mixture of HbS/A was purified from blood; from tissue; host or cells: blood of homozygous sickle cell patients (CHORI)
The experiment can be described thus: R/T assay (relaxed-to-tense transition under deoxygenated conditions). The format is biochemical, human (homozygous sickle cell patients). The following applies: compound at 9 μM; 3 μM HbS/A; % R remaining vs no treatment. The protocol: A relaxed-to-tense transition assay (“R/T assay”) was used to determine the ability of substituted benzaldehyde compounds to maintain the high-oxygen affinity relaxed (R) state of hemoglobin under deoxygenated conditions. This ability can be expressed as a “delta R” value (i.e., the change in the time-period of the R state after hemoglobin is treated with a compound, as compared to the period without treatment with the compound). Delta R is the % R to remaining after the compounds treatment compared with no treatment (e.g. if R % without treatment is 8% while with treatment with a target compound is 48% R at 30 μM, then % R is 40% for that compound.
A mixture of HbS/A was purified from blood obtained from homozygous sickle cell patients though the Hemoglobinopathy Center at Children's Hospital Oakland Research Institute (CHORI) with Institutional Review Board approval. HbS/A (at a final concentration of 3 μM) was incubated for 1 hr at 37° C. in presence or absence of compounds in […] potassium phosphate buffer, pH=7.4 and 30 μM 2, 3 diphosphoglycerate (DPG) in 96 well plates in a final volume of 160 μl. Compounds were added at different concentrations (3 μM to 100 μM final concentrations). Plates were covered with a Mylar film. After incubation was completed the Mylar cover was removed and the plates were placed in a Spectrostar Nano plate reader previously heated at 37° C. Five minutes later, N2 (flow rate=20 L/min) was flowed through the spectrophotometer. Spectroscopic measurements (300 nm to 700 nm) were taken every 5 min for 2 hours. Data analysis was performed by using linear regression from the data retrieved for all wavelengths.
Table 4 below lists the delta R values where + indicates a delta R of between 0 and 30, ++ indicates a delta R of between 30 and 50, and +++ indicates a delta R of 50 or greater. Unless noted otherwise, the compounds in Table 2 were tested at 30 μM.

Experiment [1] addresses T2, purified Hemoglobin S (HbS) (Homo sapiens, UniProt P68871+P69905, E7V).
T2 construct: HbS was purified by a modified procedure; from tissue; host or cells: blood of homozygous sickle cell patients (CHORI); for the polymerization assay purified by the CRO VIRUSYS
Briefly: Modulation of hemoglobin oxygen affinity: oxygen equilibrium curves (HEMOX) in purified HbS. The following applies: compound at 30 μM; 25 μM purified HbS, 45 min at 37° C. The format is biochemical, human (homozygous sickle cell patients). The protocol: Oxygen equilibrium curves (OEC) in purified Hemoglobin S (HbS) were measured by the change in p50, the partial pressure of oxygen at which the heme binding sites in the HbS sample are 50% saturated with oxygen. HbS was purified by a modified procedure (Antonini and Brunori, 1971; Heomoglobin and Myoglobin in their Reactions with Ligands; North Holland Publishing Company; Amsterdam, London) from blood obtained from homozygous sickle cell patients though the Hemoglobinopathy Center at Children's Hospital Oakland Research Institute (CHORI) with Institutional Review Board approval. Oxygen equilibrium curves were carried out with a HEMOX analyzer, (TCS Scientific, New Hope, Pa.). Five hundred μL of 250 μM purified HbS were diluted into 4.5 mL of HEMOX buffer (30 mM TES, 130 mM NaCl, 5 mM KCl, pH=7.4) resulting in a final hemoglobin concentration of 25 μM. The compounds were added at the final desired concentrations. The mixture was incubated for 45 min at 37° C. and then transferred to the Hemox sample chamber. The samples were saturated with oxygen by flushing with compressed air for 10 minutes. The samples were then flushed with pure nitrogen and the absorbance of deoxy-Hb was recorded as a function of the solution pO2. The oxygen equilibrium data was then fit to the Hill Model to obtain values for p50. The deoxygenation curves for both HbS alone (control) and HbS in the presence of compound were collected with the TCS software. The p50 for purified Hbs was typically 13.8±1.6. Delta p50 values were obtained from the p50 value for control minus the p50 value for HbS treated with compound divided by the p50 value for the control.
The compounds of Table 1 that were where tested in the assay above were all found to have positive delta p50 values. Delta p50% is calculated from [[p50(HbS) −p50(HbS treated with compound)]/p50(HbS)]×100. Table 2 below lists the delta p50% values where + indicates a delta p50% of between 0 and 29, ++ indicates a delta p50% of between 30 and 50, and +++ indicates a delta p50% of 50 or greater. Unless noted otherwise, the compounds in Table 2 were tested at 30 μM.

Structures are written as SMILES.

On to `COc1cc(C=O)c(OCc2cncc(C)c2)cn1` [Compound 43, 2-methoxy-5-((5-methylpyridin-3-yl)methoxy)isonicotinaldehyde], for which the “delta R” value at HbS/A is “+ (a delta R of between 0 and 30)”. In addition, the “delta p50%” value in experiment [1] was “++ (a delta p50% of between 30 and 50)”. For `COc1cc(C=O)c(OCc2ccc3ccccc3n2)cn1` [Compound 45, 2-methoxy-5-(quinolin-2-ylmethoxy)isonicotinaldehyde], on HbS/A, the “delta R” value was “++ (a delta R of between 30 and 50)”. Also, in experiment [1], the “delta p50%” value is listed as “+++ (a delta p50% of 50 or greater)”.

As for `COc1cc(C=O)c(OCc2ccncc2)cn1` [Compound 46, 2-methoxy-5-(pyridin-4-ylmethoxy)isonicotinaldehyde], the “delta R” value at HbS/A was “+ (a delta R of between 0 and 30)”. In experiment [1], the “delta p50%” value was “++ (a delta p50% of between 30 and 50)”. Turning to `COC(=O)c1cccn2cc(COc3cnc(OC)cc3C=O)nc12` [Compound 53, methyl 2-((4-formyl-6-methoxypyridin-3-yloxy)methyl)imidazo[1,2-a]pyridine-8-carboxylate], the “delta R” value on HbS/A was “+ (a delta R of between 0 and 30)”. In experiment [1], the “delta p50%” value is “++ (a delta p50% of between 30 and 50)”. As to `COc1cc(C=O)c(OCc2cccnc2Br)cn1` [Compound 63, 5-((2-bromopyridin-3-yl)methoxy)-2-methoxyisonicotinaldehyde], the “delta R” value at HbS/A is “++ (a delta R of between 30 and 50)”. The “delta p50%” value in experiment [1] is “+++ (a delta p50% of 50 or greater)”. Take `COc1cc(C=O)c(OCc2cncc(Br)c2)cn1` [Compound 66, 5-((5-bromopyridin-3-yl)methoxy)-2-methoxyisonicotinaldehyde]: at HbS/A, the “delta R” value is “++ (a delta R of between 30 and 50)”. In experiment [1], the “delta p50%” value is “++ (a delta p50% of between 30 and 50)”. As to `COc1cc(C=O)c(OCc2cccc3c2cnn3C)cn1` [Compound 84, 2-methoxy-5-((1-methyl-1H-indazol-4-yl)methoxy)isonicotinaldehyde], at HbS/A, the “delta R” value is “++ (a delta R of between 30 and 50)”. The “delta p50%” value in experiment [1] was “++ (a delta p50% of between 30 and 50)”. For `Cc1ccc(OCc2cccc3c2cnn3C(=O)OC(C)(C)C)c(C=O)n1` [Compound 86, tert-butyl 4-((2-formyl-6-methylpyridin-3-yloxy)methyl)-1H-indazole-1-carboxylate], the “delta R” value on HbS/A was “+ (a delta R of between 0 and 30)”. Moreover, the “delta p50%” value in experiment [1] was “++ (a delta p50% of between 30 and 50)”. Turning to `Cc1ccc(OCc2ccc3cnn(C)c3c2)c(C=O)n1` [Compound 91, 6-methyl-3-((1-methyl-1H-indazol-6-yl)methoxy)picolinaldehyde], the “delta R” value at HbS/A is recorded as “+++ (a delta R of 50 or greater)”. The “delta p50%” value in experiment [1] was “++ (a delta p50% of between 30 and 50)”.

`Cc1ccc(OCc2cccc3ncccc23)c(C=O)n1` [Compound 119, 6-methyl-3-(quinolin-5-ylmethoxy)picolinaldehyde]: the “delta R” value on HbS/A is “++ (a delta R of between 30 and 50)”. The “delta p50%” value in experiment [1] is “++ (a delta p50% of between 30 and 50)”.

As to `CCOC(=O)C1CSC(c2cc(OC)ncc2OCc2cccn3ccnc23)N1` (centres unmarked) [Compound 126, ethyl 2-(5-(imidazo[1,2-a]pyridin-8-ylmethoxy)-2-methoxypyridin-4-yl)thiazolidine-4-carboxylate], in experiment [1], the “delta p50%” value was “+ (a delta p50% of between 0 and 29)”. Turning to `COc1cc(C=O)c(OCc2cccnc2-c2cnn(C)c2)cn1` [Compound 127, 2-methoxy-5-((2-(1-methyl-1H-pyrazol-4-yl)pyridin-3-yl)methoxy)isonicotinaldehyde], the “delta p50%” value in experiment [1] was “+ (a delta p50% of between 0 and 29)”.

For `COc1cc(C=O)c(OCc2cccnc2-c2cn[nH]c2)cn1` [Compound 128, 5-((2-(1H-pyrazol-4-yl)pyridin-3-yl)methoxy)-2-methoxyisonicotinaldehyde], the “delta p50%” value in experiment [1] is “+ (a delta p50% of between 0 and 29)”. For `COc1cc(C=O)c(OCc2cccnc2-n2cccn2)cn1` [Compound 134, 5-((2-(1H-pyrazol-1-yl)pyridin-3-yl)methoxy)-2-methoxyisonicotinaldehyde], on HbS/A, the “delta R” value is “+ (a delta R of between 0 and 30)”. The “delta p50%” value in experiment [1] is “++ (a delta p50% of between 30 and 50)”. On to `Cc1ccc(OCc2cccnc2-n2cccn2)c(C=O)n1` [Compound 135, 3-((2-(1H-pyrazol-1-yl)pyridin-3-yl)methoxy)-6-methylpicolinaldehyde], for which the “delta p50%” value in experiment [1] was “+ (a delta p50% of between 0 and 29)”. For `Cc1ccc(OCc2cccnc2)c(C=O)n1` [Compound 136, 6-methyl-3-(pyridin-3-ylmethoxy)picolinaldehyde], the “delta p50%” value in experiment [1] was “+ (a delta p50% of between 0 and 29)”.

With `COC(=O)c1cc(COc2cnc(OC)cc2C=O)c2nccn2c1` [Compound 137, methyl 8-(((4-formyl-6-methoxypyridin-3-yl)oxy)methyl)imidazo[1,2-a]pyridine-6-carboxylate], the “delta p50%” value in experiment [1] was “+ (a delta p50% of between 0 and 29)”. Consider `COC(=O)c1cc(COc2cnc(OC)cc2C=O)c2nc(Br)cn2c1` [Compound 138, methyl 2-bromo-8-(((4-formyl-6-methoxypyridin-3-yl)oxy)methyl)imidazo[1,2-a]pyridine-6-carboxylate], for which the “delta p50%” value in experiment [1] is “+ (a delta p50% of between 0 and 29)”.

In the case of `Cc1ccc(OCc2cccn3cncc23)c(C=O)n1` [Compound 139, 3-(imidazo[1,5-a]pyridin-8-ylmethoxy)-6-methylpicolinaldehyde], the “delta p50%” value in experiment [1] is “+ (a delta p50% of between 0 and 29)”. Still for that read-out and setting: under `COC(=O)c1cncc(COC(=O)c2cncc(COc3cnc(OC)cc3C=O)c2)c1` [Compound 141, (5-(methoxycarbonyl)pyridin-3-yl)methyl 5-(((4-formyl-6-methoxypyridin-3-yl)oxy)methyl)nicotinate] stands “+ (a delta p50% of between 0 and 29)”; under `COc1cc(C=O)c(OCc2cccnc2-c2c(C)cnn2C)cn1` [Compound 142, 5-((2-(1,4-dimethyl-1H-pyrazol-5-yl)pyridin-3-yl)methoxy)-2-methoxyisonicotinaldehyde], “+ (a delta p50% of between 0 and 29)”. Turning to `COc1cc(C=O)c(OCc2cccnc2-c2cccnc2)cn1` [Compound 161, 5-([2,3′-bipyridin]-3-ylmethoxy)-2-methoxyisonicotinaldehyde], the “delta R” value at HbS/A was “+ (a delta R of between 0 and 30)”. Further, in experiment [1], the “delta p50%” value is “++ (a delta p50% of between 30 and 50)”. In the case of `COCCn1nccc1-c1ncccc1COc1cnc(OC)cc1C=O` [Compound 172, 2-methoxy-5-((2-(1-(2-methoxyethyl)-1H-pyrazol-5-yl)pyridin-3-yl)methoxy)isonicotinaldehyde], the “delta R” value on HbS/A is “+ (a delta R of between 0 and 30)”. The “delta p50%” value in experiment [1] is “++ (a delta p50% of between 30 and 50)”.

In the case of `COc1cc(C=O)c(OCc2cccnc2-c2ccnn2COCC[Si](C)(C)C)cn1` [Compound 193, 2-methoxy-5-((2-(1-((2-(trimethylsilyl)ethoxy)methyl)-1H-pyrazol-5-yl)pyridin-3-yl)methoxy)isonicotinaldehyde], the “delta R” value on HbS/A was “+ (a delta R of between 0 and 30)”. In addition, the “delta p50%” value in experiment [1] is “++ (a delta p50% of between 30 and 50)”.
